Test results as given in patent US8143414B2, “Hepatitis C virus inhibitors” (Bristol-Myers Squibb Company, priority 2009, dated 2012).

System: HCV 1b genotype
Assay: HCV replicon assay, 1b genotype
Format: cell-based
Settings: Hepatitis C virus; HCV 1b genotype replicon; EC50 = effective 50% inhibitory concentration
Protocol: An HCV Replion assay was utilized in the present disclosure, and was prepared, conducted and validated as described in commonly owned PCT/US2006/022197 and in O'Boyle et. al. Antimicrob Agents Chemother. 2005 April; 49(4):1346-53. Assay methods incorporating luciferase reporters have also been used as described (Apath.com).
HCV-neo replicon cells and replicon cells containing mutations in the NS5A region were used to test the currently described family of compounds. The compounds were determined to have more than 10-fold less inhibitory activity on cells containing mutations than wild-type cells. Thus, the compounds of the present disclosure can be effective in inhibiting the function of the HCV NS5A protein and are understood to be as effective in combinations as previously described in application PCT/US2006/022197 and commonly owned WO/04014852. Further, the compounds of the present disclosure can be effective against the HCV 1b genotype. It should also be understood that the compounds of the present disclosure can inhibit multiple genotypes of HCV. […] In one embodiment, compounds of the present disclosure are inhibitory versus 1a, 1b, 2a, 2b, 3a, 4a, and 5a genotypes.

| SMILES | EC50 [nM] |
| --- | --- |
| COC(=O)N[C@H](C(=O)N1CCC[C@H]1c1ncc(-c2nc3cc4sc(-c5cnc([C@@H]6CCCN6C(=O)[C@@H](NC(=O)OC)C(C)C)[nH]5)nc4cc3s2)[nH]1)C(C)C [Example 1, Methyl ((1S)-1-(((2S)-2-(4-(6-(2-((28)-1-((2S)-2-((methoxycarbonyl)amino)-3-methylbutanoyl)-2-pyrrolidinyl)-1H-imidazol-4-yl)[1,3]thiazolo[5,4-f][1,3]benzothiazol-2-yl)-1H-imidazol-2-yl)-1-pyrrolidinyl)carbonyl)-2-methylpropyl)carbamate, bistrifluoracetate] | 0.034 |
| COC(=O)N[C@@H](C(=O)N1CCC[C@H]1c1ncc(-c2nc3cc4sc(-c5cnc([C@@H]6CCCN6C(=O)[C@H](NC(=O)OC)C(C)C)[nH]5)nc4cc3s2)[nH]1)C(C)C [Example 3, Methyl ((1R)-1-(((2S)-2-(4-(6-(2-((2S)-1-((2R)-2-((methoxycarbonyl)amino)-3-methylbutanoyl)-2-pyrrolidinyl)-1H-imidazol-4-yl)[1,3]thiazolo[5,4-f][1,3]benzothiazol-2-yl)-1H-imidazol-2-yl)-1-pyrrolidinyl)carbonyl)-2-methylpropyl)carbamate, bistrifluoracetate] | 350 |
| COC(=O)N[C@@H](C(=O)N1CCC[C@H]1c1ncc(-c2nc3cc4sc(-c5cnc([C@@H]6CCCN6C(=O)[C@H](NC(=O)OC)c6ccccc6)[nH]5)nc4cc3s2)[nH]1)c1ccccc1 [Example 2, Dimethyl ([1,3]thiazolo[5,4-f][1,3]benzothiazole-2,6-diylbis(1H-imidazole-4,2-diyl(2S)-2,1-pyrrolidinediyl((1R)-2-oxo-1-phenyl-2,1-ethanediyl)))biscarbamate, bistrifluoracetate] | 0.025 |
